Results reported in ChEMBL document CHEMBL4118154, “Discovery of evocalcet, a next-generation calcium-sensing receptor agonist for the treatment of hyperparathyroidism” (Bioorg Med Chem Lett, 2018).

What was measured:
[1] = Cmax in monkey at 1 mg/kg, po; assay type: ADME, organism-based, Macaca mulatta; design: dose 1 mg/kg, route oral; conditions: rhesus monkey, in vivo
[2] = Intrinsic clearance in human liver microsomes assessed per protein; assay type: ADME, microsome; conditions: read-out: CLH
CYP1A2 = target: T1, CYP1A2 (Homo sapiens, UniProt P05177); experiment: Inhibition of CYP1A2 (unknown origin); assay type: ADME
T1 sequence (P05177 whole entry): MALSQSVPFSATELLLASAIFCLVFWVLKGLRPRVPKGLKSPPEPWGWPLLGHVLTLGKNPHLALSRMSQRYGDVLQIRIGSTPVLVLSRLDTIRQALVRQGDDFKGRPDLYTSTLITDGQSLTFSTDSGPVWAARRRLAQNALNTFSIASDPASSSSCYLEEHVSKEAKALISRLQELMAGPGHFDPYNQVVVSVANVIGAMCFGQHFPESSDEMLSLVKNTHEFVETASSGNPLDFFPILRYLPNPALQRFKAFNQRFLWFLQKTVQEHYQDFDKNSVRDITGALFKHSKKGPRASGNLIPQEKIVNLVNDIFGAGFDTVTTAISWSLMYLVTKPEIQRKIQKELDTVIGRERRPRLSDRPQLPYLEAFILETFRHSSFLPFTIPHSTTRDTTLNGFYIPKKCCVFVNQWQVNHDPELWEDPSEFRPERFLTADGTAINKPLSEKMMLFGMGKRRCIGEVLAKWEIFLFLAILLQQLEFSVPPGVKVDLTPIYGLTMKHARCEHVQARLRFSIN

[3] = Total clearance in monkey at 0.3 mg/kg, iv; assay type: ADME, organism-based, Macaca mulatta; conditions: rhesus monkey, in vivo
CYP2C8 = target: T2, CYP2C8 (Homo sapiens, UniProt P10632); experiment: Inhibition of CYP2C8 (unknown origin); assay type: ADME
T2 sequence (P10632 whole entry): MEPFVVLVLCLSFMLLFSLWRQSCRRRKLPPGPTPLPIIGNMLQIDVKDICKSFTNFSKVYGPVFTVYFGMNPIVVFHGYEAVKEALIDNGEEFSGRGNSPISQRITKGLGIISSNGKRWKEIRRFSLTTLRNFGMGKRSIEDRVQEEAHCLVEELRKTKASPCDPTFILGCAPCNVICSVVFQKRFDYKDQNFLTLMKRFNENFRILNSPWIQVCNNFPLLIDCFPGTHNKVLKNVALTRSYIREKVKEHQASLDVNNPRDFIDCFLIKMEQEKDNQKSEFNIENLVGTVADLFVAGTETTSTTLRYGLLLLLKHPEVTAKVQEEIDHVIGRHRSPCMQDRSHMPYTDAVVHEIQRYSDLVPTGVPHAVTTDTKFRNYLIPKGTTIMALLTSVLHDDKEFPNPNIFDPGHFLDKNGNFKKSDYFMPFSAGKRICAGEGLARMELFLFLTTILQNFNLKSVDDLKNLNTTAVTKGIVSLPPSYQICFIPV

[4] = Initial plasma concentration in rat at 0.3 mg/kg, iv; assay type: ADME, organism-based
[5] = AUC (0 to infinity) in rat at 1 mg/kg, po; assay type: ADME, organism-based; design: dose 1 mg/kg, route oral, time infinity; conditions: in vivo
[6] = Half life in monkey at 0.3 mg/kg, iv; assay type: ADME, organism-based, Macaca mulatta; conditions: rhesus monkey, in vivo
CYP2E1 = CYP2E1 (Homo sapiens, UniProt P05181); experiment: Inhibition of CYP2E1 (unknown origin); assay type: ADME
Sequence of CYP2E1 (P05181 whole entry): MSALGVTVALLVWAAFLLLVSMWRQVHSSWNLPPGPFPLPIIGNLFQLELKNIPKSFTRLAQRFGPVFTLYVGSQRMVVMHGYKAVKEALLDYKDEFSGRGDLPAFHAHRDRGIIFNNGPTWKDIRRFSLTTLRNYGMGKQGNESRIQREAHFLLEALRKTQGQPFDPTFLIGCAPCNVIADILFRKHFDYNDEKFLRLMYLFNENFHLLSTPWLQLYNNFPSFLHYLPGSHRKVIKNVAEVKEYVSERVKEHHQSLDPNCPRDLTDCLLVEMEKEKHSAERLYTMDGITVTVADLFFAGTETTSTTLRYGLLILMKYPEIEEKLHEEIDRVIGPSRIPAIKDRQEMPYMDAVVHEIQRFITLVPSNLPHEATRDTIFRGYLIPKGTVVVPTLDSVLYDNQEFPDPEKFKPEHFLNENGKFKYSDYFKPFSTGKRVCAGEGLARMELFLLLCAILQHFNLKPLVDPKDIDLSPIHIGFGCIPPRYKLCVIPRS

[7] = Initial plasma concentration in monkey at 0.3 mg/kg, iv; assay type: ADME, organism-based, Macaca mulatta; conditions: rhesus monkey
[8] = target: T3, Extracellular calcium-sensing receptor (Rattus norvegicus, UniProt P48442); experiment: Agonist activity at CaSR in rat parathyroid cells assessed as inhibition of PTH (1 to 84 residues) production in presence of Cacl2 by ELISA; assay type: functional, cell-based
T3 sequence (P48442 whole entry): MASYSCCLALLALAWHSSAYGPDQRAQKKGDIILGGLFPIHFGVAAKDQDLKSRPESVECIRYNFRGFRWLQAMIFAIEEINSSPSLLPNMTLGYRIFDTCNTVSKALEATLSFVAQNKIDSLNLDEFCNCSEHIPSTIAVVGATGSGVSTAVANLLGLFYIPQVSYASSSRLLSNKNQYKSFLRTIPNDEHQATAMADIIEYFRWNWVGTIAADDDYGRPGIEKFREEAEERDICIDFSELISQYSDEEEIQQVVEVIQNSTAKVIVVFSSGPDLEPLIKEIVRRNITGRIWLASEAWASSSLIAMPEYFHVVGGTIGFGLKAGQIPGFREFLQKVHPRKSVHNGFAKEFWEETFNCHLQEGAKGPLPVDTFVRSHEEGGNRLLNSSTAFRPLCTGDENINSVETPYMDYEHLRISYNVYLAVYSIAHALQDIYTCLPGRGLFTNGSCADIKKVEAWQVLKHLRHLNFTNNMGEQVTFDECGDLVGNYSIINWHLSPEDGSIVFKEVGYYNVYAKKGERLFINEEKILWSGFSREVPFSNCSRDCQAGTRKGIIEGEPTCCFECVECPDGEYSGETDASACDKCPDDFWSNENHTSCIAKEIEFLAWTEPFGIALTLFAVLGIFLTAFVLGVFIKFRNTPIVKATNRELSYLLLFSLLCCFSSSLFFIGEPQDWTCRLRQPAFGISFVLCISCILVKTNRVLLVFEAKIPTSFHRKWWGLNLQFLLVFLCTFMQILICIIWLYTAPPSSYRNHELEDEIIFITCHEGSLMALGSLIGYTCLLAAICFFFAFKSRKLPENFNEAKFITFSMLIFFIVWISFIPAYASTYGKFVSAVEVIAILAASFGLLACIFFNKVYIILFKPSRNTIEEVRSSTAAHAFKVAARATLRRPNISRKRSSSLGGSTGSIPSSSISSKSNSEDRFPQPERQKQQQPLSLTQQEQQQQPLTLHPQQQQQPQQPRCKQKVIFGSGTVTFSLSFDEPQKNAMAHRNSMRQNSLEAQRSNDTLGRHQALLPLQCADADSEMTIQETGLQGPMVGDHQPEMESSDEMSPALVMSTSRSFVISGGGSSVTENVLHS

[9] = Tmax in monkey at 1 mg/kg, po; assay type: ADME, organism-based, Macaca mulatta; conditions: rhesus monkey, in vivo
[10] = Intrinsic clearance in rat liver microsomes assessed per protein; assay type: ADME, microsome; conditions: read-out: CLH
[11] = Oral bioavailability in monkey at 1 mg/kg; assay type: ADME, organism-based, Macaca mulatta; conditions: rhesus monkey, in vivo
[12] = AUC (0 to infinity) in monkey at 1 mg/kg, po; assay type: ADME, organism-based, Macaca mulatta; design: dose 1 mg/kg, time infinity, route oral; conditions: rhesus monkey, in vivo
CYP2D6 = CYP2D6 (Homo sapiens, UniProt P10635); experiment: Inhibition of CYP2D6 (unknown origin); assay type: ADME
Sequence of CYP2D6 (P10635 whole entry): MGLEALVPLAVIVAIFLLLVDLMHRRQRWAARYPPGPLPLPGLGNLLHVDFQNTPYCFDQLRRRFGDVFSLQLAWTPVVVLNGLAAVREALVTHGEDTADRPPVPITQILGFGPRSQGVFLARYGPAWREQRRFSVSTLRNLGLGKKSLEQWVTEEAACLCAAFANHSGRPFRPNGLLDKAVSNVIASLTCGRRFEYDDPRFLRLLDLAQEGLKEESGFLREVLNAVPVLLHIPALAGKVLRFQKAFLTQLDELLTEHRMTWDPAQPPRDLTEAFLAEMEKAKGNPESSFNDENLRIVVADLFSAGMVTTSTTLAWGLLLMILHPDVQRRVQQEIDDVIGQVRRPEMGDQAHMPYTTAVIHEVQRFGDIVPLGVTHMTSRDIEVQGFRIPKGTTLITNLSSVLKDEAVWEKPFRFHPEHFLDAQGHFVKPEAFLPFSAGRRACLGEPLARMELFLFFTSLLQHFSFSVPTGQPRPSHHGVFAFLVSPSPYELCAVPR

[13] = Cmax in rat at 1 mg/kg, po; assay type: ADME, organism-based; design: dose 1 mg/kg, route oral; conditions: in vivo

Q: Which Cmax [1] does the source give for C[C@@H](N[C@H]1CCN(c2ccc(CC(=O)O)cc2)C1)c1cccc2ccccc12.Cl.Cl here?
A: 746 ng/mL

Q: And the microsomal CLint [2]?
A: 68 µL/min/mg

Q: And the IC50 (CYP1A2)?
A: > 50 µM

Q: What about the clearance [3] of the same compound?
A: 5.37 mL/min/kg

Q: What about the IC50 (CYP2C8) of the same compound?
A: > 50 µM

Q: What about the C0 [4] of the same compound?
A: 1080 ng/mL

Q: And the AUC(0-inf) [5]?
A: 8440 ng·h/mL

Q: What about the half-life [6] of the same compound?
A: 10.2 h

Q: And the IC50 (CYP2E1)?
A: > 50 µM

Q: And the C0 [7]?
A: 1630 ng/mL

Q: What about the IC50 [8] of the same compound?
A: 0.0308 µM

Q: What about the Tmax [9] of the same compound?
A: 1.38 h

Q: What about the microsomal CLint [10] of the same compound?
A: 34 µL/min/mg

Q: What about the bioavailability [11] of the same compound?
A: 55.8%

Q: And the AUC(0-inf) [12]?
A: 1660 ng·h/mL

Q: What about the IC50 (CYP2D6) of the same compound?
A: > 50 µM

Q: And the Cmax [13]?
A: 2190 ng/mL
